Results on 16 molecules are retold here after patent publication US20240131001A1, “PHARMACEUTICAL APPLICATION OF FUSED RING PHENOLIC COMPOUNDS” (RISEN (SUZHOU) PHARMA TECH CO. LTD., priority 2020, published 2024).

Molecules are shown by their SMILES. Where two headings read alike, the source gives them in different places.

For data set [1], the system named is PPK. Kind of data set: PPK inhibitor screening assay (Table 1, PPK isoform not given). Type of data set: biochemical, Pseudomonas aeruginosa. As to conditions: PPK isoform not stated; for IC50: read-out: IC50 Values for PPK Inhibition. An excerpt:
(§1) In order to evaluate the inhibitory effect of the compounds on PPKs, the PPK1, PPK2A, PPK2B and PPK2C were used respectively to test the above compounds using a kit described in an article (Liang Peng et al. & Ning Sun (2020) Discovery and antibacterial study of potential PPK1 inhibitors against uropathogenic E. coli, Journal of Enzyme Inhibition and Medicinal Chemistry, 35:1, 1224-1232).

For data set [2], the target named is PPK1 (Pseudomonas aeruginosa, UniProt P0DP44). The data set can be described thus: PPK inhibitor screening assay, PPK1. Type of data set: biochemical.
PPK1, sequence (P0DP44 whole entry): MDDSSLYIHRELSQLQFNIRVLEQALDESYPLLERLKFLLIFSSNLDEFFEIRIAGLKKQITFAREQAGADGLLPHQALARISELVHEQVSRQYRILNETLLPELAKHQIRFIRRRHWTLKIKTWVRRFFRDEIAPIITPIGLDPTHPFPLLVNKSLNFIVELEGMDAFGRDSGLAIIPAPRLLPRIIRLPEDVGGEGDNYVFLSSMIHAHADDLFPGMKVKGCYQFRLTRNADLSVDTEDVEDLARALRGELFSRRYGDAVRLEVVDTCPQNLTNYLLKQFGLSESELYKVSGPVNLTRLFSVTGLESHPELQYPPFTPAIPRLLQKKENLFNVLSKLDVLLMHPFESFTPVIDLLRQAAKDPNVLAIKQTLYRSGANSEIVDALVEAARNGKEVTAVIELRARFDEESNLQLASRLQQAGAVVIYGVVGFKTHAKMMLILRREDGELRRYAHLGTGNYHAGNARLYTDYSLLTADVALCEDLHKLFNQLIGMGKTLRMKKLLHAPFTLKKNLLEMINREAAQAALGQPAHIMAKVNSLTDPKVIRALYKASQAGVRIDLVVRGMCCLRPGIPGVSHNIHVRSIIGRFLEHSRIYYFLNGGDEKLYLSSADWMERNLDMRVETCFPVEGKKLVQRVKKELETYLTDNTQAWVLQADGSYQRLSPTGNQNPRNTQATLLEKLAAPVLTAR
Source text: as §1

The target of data set [3] is PPK2B (Pseudomonas aeruginosa, UniProt Q9I154). The data set can be described thus: PPK inhibitor screening assay, PPK2B. It counts as biochemical.
PPK2B, sequence (Q9I154 whole entry): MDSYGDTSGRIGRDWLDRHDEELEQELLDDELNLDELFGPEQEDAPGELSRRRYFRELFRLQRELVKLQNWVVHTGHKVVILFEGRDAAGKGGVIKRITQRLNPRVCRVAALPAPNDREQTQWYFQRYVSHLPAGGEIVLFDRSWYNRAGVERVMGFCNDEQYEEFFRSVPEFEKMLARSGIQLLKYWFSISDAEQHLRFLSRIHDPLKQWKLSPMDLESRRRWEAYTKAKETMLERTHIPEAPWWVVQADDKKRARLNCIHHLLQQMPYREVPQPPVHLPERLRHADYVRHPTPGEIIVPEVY
Source text: as §1

The target in data set [4] is PPK2A (Pseudomonas aeruginosa, UniProt Q9I6Z1). Kind of data set: PPK inhibitor screening assay, PPK2A. It counts as biochemical.
PPK2A, sequence (Q9I6Z1 whole entry): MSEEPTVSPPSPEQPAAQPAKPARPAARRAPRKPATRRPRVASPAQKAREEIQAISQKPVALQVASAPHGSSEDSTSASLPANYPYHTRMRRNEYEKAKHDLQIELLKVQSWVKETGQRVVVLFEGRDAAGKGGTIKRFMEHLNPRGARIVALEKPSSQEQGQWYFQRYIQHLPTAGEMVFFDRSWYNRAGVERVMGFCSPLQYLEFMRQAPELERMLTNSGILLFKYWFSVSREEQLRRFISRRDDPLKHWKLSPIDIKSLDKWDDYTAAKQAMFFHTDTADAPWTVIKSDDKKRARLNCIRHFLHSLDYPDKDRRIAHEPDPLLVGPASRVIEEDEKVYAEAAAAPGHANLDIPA
Source text: as §1

Data set [5] deals with Pseudomonas aeruginosa. Kind of data set: Nematode survival test. Type of data set: in vivo. As to conditions: Caenorhabditis elegans infected with wild-type Pseudomonas aeruginosa, six days. An excerpt: FIG. 3: Effect of Compound 4 on the Survival Rate of Nematodes Infected with Pseudomonas Aeruginosa.
Caenorhabditis elegans were divided into five groups A, B, C, D, E, and then subjected to modeling respectively. Caenorhabditis elegans in group A and B were infected with wild-type (WT) Pseudomonas aeruginosa. Group A served as the DMSO control group and group B as compound 4 treatment group. Caenorhabditis elegans in groups C and D were infected with Pseudomonas aeruginosa which was knocked out of all PPK (ΔpolyP, Δppk1Δppk2ΔAppk2BΔ ppk 2C), where group C was DMSO control group and group D served as compound 4 treatment group; and group E was infected with Escherichia coli (0P50E. Coli). After modeling, Caenorhabditis elegans in groups A and C were continuously treated with DMSO, and those in groups B, D and E were continuously treated with compound 4. The environment and conditions were consistent across the five groups. Six days later, the survival rate of nematodes in five groups was calculated.

The test system of data set [6] is Pseudomonas aeruginosa. Kind of data set: Biofilm testing. The settings on record: 100 μM compound. It counts as cell-based. On the procedure:
FIG. 2: Effect of Compound 4 on Biofilm Formation in Different Pseudomonas Aeruginosa Strains. A: absorbance. The experimental concentration of compound 4 was 100 μM, and “−” or “+” indicates the absence or presence of compound 4; WT: wild-type strain; Δ ppk 1 is the PPK1 knocked out strain; Δ ppk2A, Δppk2B and Δppk2C are the strains with PPK2A, PPK2B, PPK2C knocked out; Δppk1, Δppk2AΔppk2B, Δppk2C are the strains with PPK1, PPK2A, PPK2B and PPK2C knocked out.
Pseudomonas aeruginosa can form biofilm in culture medium. Four groups of LB liquid media were set respectively, among them, group A was inoculated with wild-type Pseudomonas aeruginosa (WT); group B was inoculated with PPK1 knocked out Pseudomonas aeruginosa (A ppkl); group C was inoculated with PPK2A, PPK2B and PPK2C knocked out Pseudomonas aeruginosa (Δ ppk 2A, Δ ppk 2B, Δ ppk 2C); group D was inoculated with PPK1 and PPK2A, PPK2B and PPK2C knocked out Pseudomonas aeruginosa (Δ ppk1, Δ ppk 2Δ A ppk 2B, Δ ppk 2C). After the four groups were infected with Pseudomonas aeruginosa, each group was further divided into two groups, with one group added with DMSO (−) as the control, the other group added with 100 μm compound 4 (+). […] And this biofilm formed in the culture medium of groups A, B, C and D was analyzed using 570 nm visible light.

Data set [7] has as its target PPK2C (Pseudomonas aeruginosa, UniProt Q9HYF1). Kind of data set: PPK inhibitor screening assay, PPK2C. Type of data set: biochemical.
Source text: as §1

Data set [8] relates to human embryonic kidney cells (HEK239T). The data set can be described thus: HEK cytotoxicity test (Trypan blue staining cell viability assay). Type of data set: cell-based. As to conditions: for relative viability rate: 100 μM, relative to DMSO; for cytotoxicity: up to 100 μM. The protocol:
FIG. 4: Toxicity Assay of Compound 4 and Compound B on Human Embryonic Kidney Cells (HEK Cells): Relative Viability in the Presence of DMSO (Control), Compound B (100 μM), and Compound 4 (100 μM).
The cytotoxicity of the compounds was assessed in cultured human embryonic kidney cells (HEK239T) using the Trypan blue staining cell viability assay. The blank solvent DMSO, compound B, and compound 4 were tested, respectively.

PPK2C, sequence (Q9HYF1 whole entry): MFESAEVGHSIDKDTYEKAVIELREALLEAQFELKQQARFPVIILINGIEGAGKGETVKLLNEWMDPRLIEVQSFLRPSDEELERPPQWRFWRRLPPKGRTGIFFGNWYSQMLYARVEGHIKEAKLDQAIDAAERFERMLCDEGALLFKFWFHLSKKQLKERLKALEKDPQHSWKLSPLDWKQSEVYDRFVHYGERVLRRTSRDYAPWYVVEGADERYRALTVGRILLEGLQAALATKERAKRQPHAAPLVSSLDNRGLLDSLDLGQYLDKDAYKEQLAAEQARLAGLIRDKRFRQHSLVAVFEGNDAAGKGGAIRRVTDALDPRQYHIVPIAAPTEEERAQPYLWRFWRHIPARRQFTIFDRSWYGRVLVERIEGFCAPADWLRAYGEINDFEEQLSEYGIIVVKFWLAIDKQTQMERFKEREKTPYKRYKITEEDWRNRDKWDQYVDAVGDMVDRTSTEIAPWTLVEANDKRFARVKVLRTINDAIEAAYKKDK

With `O=c1oc2cc(O)ccc2c2ccc(O)c(O)c12` [C, reference compound], the IC50 (commonly the concentration at which inhibition is half-maximal) in data set [1] was more than 100 µM.

Take `O=c1cc(-c2cc(O)c(O)c(O)c2Br)oc2c(O)c(O)ccc12` [Compound 1]: the IC50 in data set [1] came out at 6 µM.

Turning to `O=c1oc2c(O)c(O)c(O)c3c(=O)oc4c(O)c(O)cc1c4c23` [Compound 2], the IC50 in data set [2] (read-out: IC50 PPK1) came to 20 µM; in data set [3], 59 µM; in data set [1] it was 8 µM.

For `O=c1oc2c(O)c(O)cc3c(=O)oc4c(O)c(O)cc1c4c23` [Compound 3], the IC50 stood at 50 µM in data set [4], 20 µM in data set [2] (read-out: IC50 PPK1), 48 µM in data set [3] and 9 µM in data set [1].

In the case of `O=C1OC2(c3ccccc31)c1ccc(O)c(O)c1Oc1c2ccc(O)c1O` [Compound 4], the IC50 came to 16 µM in data set [4]; 17 µM in data set [2] (read-out: IC50 PPK1); 20 µM in data set [3]; 165 µM in data set [7]; 17 µM in data set [1]. In data set [5], the mortality of nematodes result is reported as “significantly reduced”. In addition, the “inhibitory effect on PPK1 and PPK2 seen in biofilm test” value in data set [6] (PPK knocked out strains) is reported as “not only inhibited PPK1, but also exhibited a good inhibitory effect on PPK2”. For the same molecule, the “biofilm formation (570 nm absorbance)” value in data set [6] (wild-type Pseudomonas aeruginosa, 37° C., 24 h) is recorded as “could reduce the formation of biofilm”. Further, the relative viability rate in data set [8] is approximately 100%. In addition, the cytotoxicity entry in data set [8] is given as “no cytotoxicity”.

Turning to `O=S1(=O)OC2(c3ccccc31)c1ccc(O)c(O)c1Oc1c2ccc(O)c1O` [Compound 5], the IC50 came to 24 µM in data set [4]; 26 µM in data set [2] (read-out: IC50 PPK1); 31 µM in data set [3]; 273 µM in data set [7]; 26.3 µM in data set [1].

For the molecule `O=S1(=O)OC2(c3ccccc31)c1cc(Br)c(O)c(O)c1Oc1c2cc(Br)c(O)c1O` [Compound 6], the IC50 in data set [1] amounted to 7.59 µM.

For `O=c1c(O)c(-c2cc(O)c(O)c(O)c2)oc2cc(O)cc(O)c12` [Compound 7], in data set [1], the IC50 worked out at 39 µM.

On to `O=c1cc(-c2cc(O)c(O)c(O)c2-c2ccsc2)oc2c(O)c(O)ccc12` [Compound 10], for which the IC50 in data set [1] is 36 µM.

As to `O=c1c(O)c(-c2ccc(O)cc2O)oc2cc(O)cc(O)c12` [Compound A, reference compound], the “IC50 Values for PPK Inhibition” value in data set [1] is listed as “Inactive”.

As for `O=c1oc2c(O)c(O)ccc2c2ccc(O)c(O)c12` [Compound B, reference compound], the IC50 in data set [2] came out at 120 µM. In addition, in data set [8], the relative viability rate entry is on record as “approximately 35%” and the cytotoxicity result was “caused a large number of cell death”. Further, in data set [1], the IC50 was 150 µM.

Consider `Cc1c(C2(c3cc(Br)c(O)c(Br)c3C)OS(=O)(=O)c3ccccc32)cc(Br)c(O)c1Br` [Compound F, reference compound], for which the “IC50 Values for PPK Inhibition” value in data set [1] is “Inactive”.

As for `O=c1c(O)c(-c2ccc(O)c(O)c2)oc2cc(O)cc(O)c12` [Compound G, reference compound], the IC50 in data set [1] came to 177 µM.

For `C[C@@H]1O[C@@H](OC[C@H]2O[C@@H](Oc3c(-c4ccc(O)c(O)c4)oc4cc(O)cc(O)c4c3=O)[C@H](O)[C@@H](O)[C@@H]2O)[C@H](O)[C@H](O)[C@H]1O` [Compound H, reference compound], the “IC50 Values for PPK Inhibition” value in data set [1] is listed as “Inactive”.

As to `O=C1OC2(c3ccc(O)cc3Oc3cc(O)ccc32)c2ccccc21` [D, reference compound], the IC50 in data set [1] is more than 200 µM.

Turning to `O=C(O)c1ccc2c(c1)C1(OC2=O)c2ccc(O)cc2Oc2cc(O)ccc21` [E, reference compound], the IC50 in data set [1] is more than 200 µM.
